Data from PubChem BioAssay (NCI).
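The compound was tested at five concentrations on cells cultured in 96-well plates, with a 48-hour exposure period. GI50 = concentration required for 50% inhibition of growth. TGI denotes the concentration required for complete inhibition of growth.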

Assays:
Experiment in all cases: growth of human tumour cells (NCI), 48 h
SK-MEL-2 melanoma = tested on: SK-MEL-2 melanoma
MCF7 breast = tested on: MCF7 breast
SK-OV-3 ovarian = tested on: SK-OV-3 ovarian
SNB-75 CNS = tested on: SNB-75 CNS
RXF 393 renal = tested on: RXF 393 renal
HOP-92 NSCLC = tested on: HOP-92 NSCLC
MDA-MB-435 = tested on: MDA-MB-435
BT-549 breast = tested on: BT-549 breast
786-0 renal = tested on: 786-0 renal
SN12C renal = tested on: SN12C renal
HCT-15 colon = tested on: HCT-15 colon
HL-60(TB) leukemia = tested on: HL-60(TB) leukemia
COLO 205 colon = tested on: COLO 205 colon
T-47D breast = tested on: T-47D breast
MDA-MB-231 breast = tested on: MDA-MB-231 breast
SNB-19 CNS = tested on: SNB-19 CNS
CAKI-1 renal = tested on: CAKI-1 renal
DU-145 prostate = tested on: DU-145 prostate
SW-620 colon = tested on: SW-620 colon
NCI/ADR-RES ovarian = tested on: NCI/ADR-RES ovarian
UO-31 renal = tested on: UO-31 renal
U251 CNS = tested on: U251 CNS
IGROV1 ovarian = tested on: IGROV1 ovarian
OVCAR-5 ovarian = tested on: OVCAR-5 ovarian
HT29 colon = tested on: HT29 colon
UACC-62 melanoma = tested on: UACC-62 melanoma
HCT-116 colon = tested on: HCT-116 colon
OVCAR-3 ovarian = tested on: OVCAR-3 ovarian
HOP-62 NSCLC = tested on: HOP-62 NSCLC
LOX IMVI melanoma = tested on: LOX IMVI melanoma
SF-295 CNS = tested on: SF-295 CNS
NCI-H226 lung = tested on: NCI-H226 lung
UACC-257 melanoma = tested on: UACC-257 melanoma
NCI-H522 lung = tested on: NCI-H522 lung
K-562 leukemia = tested on: K-562 leukemia
SF-539 CNS = tested on: SF-539 CNS
PC-3 prostate = tested on: PC-3 prostate
NCI-H23 lung = tested on: NCI-H23 lung
M14 melanoma = tested on: M14 melanoma
EKVX NSCLC = tested on: EKVX NSCLC
RPMI-8226 leukemia = tested on: RPMI-8226 leukemia
KM12 colon = tested on: KM12 colon
NCI-H460 lung = tested on: NCI-H460 lung
OVCAR-8 ovarian = tested on: OVCAR-8 ovarian
MALME-3M melanoma = tested on: MALME-3M melanoma
TK-10 renal = tested on: TK-10 renal
SR leukemia = tested on: SR leukemia
SK-MEL-5 melanoma = tested on: SK-MEL-5 melanoma
SF-268 CNS = tested on: SF-268 CNS
A549 NSCLC = tested on: A549 NSCLC
OVCAR-4 ovarian = tested on: OVCAR-4 ovarian
A498 renal = tested on: A498 renal
HS 578T breast = tested on: HS 578T breast
ACHN renal = tested on: ACHN renal
MOLT-4 leukemia = tested on: MOLT-4 leukemia
SK-MEL-28 melanoma = tested on: SK-MEL-28 melanoma

Cc1cnc2n1S(=O)(=O)c1cc(C(=O)Nc3cccc4nsnc34)c(Cl)cc1S2
GI50 (SK-MEL-2 melanoma): 44.2 µM | TGI (SK-MEL-2 melanoma): > 100 µM | GI50 (MCF7 breast): 16.4 µM | TGI (MCF7 breast): 32.2 µM | GI50 (SK-OV-3 ovarian): > 100 µM | TGI (SK-OV-3 ovarian): > 100 µM | GI50 (SNB-75 CNS): 25.6 µM | TGI (SNB-75 CNS): 62.3 µM | GI50 (RXF 393 renal): 12.9 µM | TGI (RXF 393 renal): 29.4 µM | GI50 (HOP-92 NSCLC): 18.3 µM | TGI (HOP-92 NSCLC): 50.4 µM | GI50 (MDA-MB-435): 22.4 µM | TGI (MDA-MB-435): 56.5 µM | GI50 (BT-549 breast): > 100 µM | TGI (BT-549 breast): > 100 µM | GI50 (786-0 renal): > 100 µM | TGI (786-0 renal): > 100 µM | GI50 (SN12C renal): 25.3 µM | TGI (SN12C renal): 58.5 µM | GI50 (HCT-15 colon): 38.1 µM | TGI (HCT-15 colon): > 100 µM | GI50 (HL-60(TB) leukemia): 24.7 µM | TGI (HL-60(TB) leukemia): > 100 µM | GI50 (COLO 205 colon): 23 µM | TGI (COLO 205 colon): 54.6 µM | GI50 (T-47D breast): 11.5 µM | TGI (T-47D breast): 31.9 µM | GI50 (MDA-MB-231 breast): 12.4 µM | TGI (MDA-MB-231 breast): 30.3 µM | GI50 (SNB-19 CNS): 27.2 µM | TGI (SNB-19 CNS): 60.8 µM | GI50 (CAKI-1 renal): 16.8 µM | TGI (CAKI-1 renal): 30.9 µM | GI50 (DU-145 prostate): 25.5 µM | TGI (DU-145 prostate): 67.9 µM | GI50 (SW-620 colon): 19.1 µM | TGI (SW-620 colon): 37.2 µM | GI50 (NCI/ADR-RES ovarian): 16.2 µM | TGI (NCI/ADR-RES ovarian): 34.1 µM | GI50 (UO-31 renal): 22.9 µM | TGI (UO-31 renal): 51.8 µM | GI50 (U251 CNS): 31.6 µM | TGI (U251 CNS): > 100 µM | GI50 (IGROV1 ovarian): 31.2 µM | TGI (IGROV1 ovarian): > 100 µM | GI50 (OVCAR-5 ovarian): 54 µM | TGI (OVCAR-5 ovarian): > 100 µM | GI50 (HT29 colon): 32.3 µM | TGI (HT29 colon): 93.8 µM | GI50 (UACC-62 melanoma): 17.1 µM | TGI (UACC-62 melanoma): 32.9 µM | GI50 (HCT-116 colon): 20.1 µM | TGI (HCT-116 colon): 35.6 µM | GI50 (OVCAR-3 ovarian): 16.2 µM | TGI (OVCAR-3 ovarian): 30.2 µM | GI50 (HOP-62 NSCLC): 20.1 µM | TGI (HOP-62 NSCLC): 35.8 µM | GI50 (LOX IMVI melanoma): 32.9 µM | TGI (LOX IMVI melanoma): > 100 µM | GI50 (SF-295 CNS): 22.8 µM | TGI (SF-295 CNS): 49.3 µM | GI50 (NCI-H226 lung): 17.3 µM | TGI (NCI-H226 lung): 34.2 µM | GI50 (UACC-257 melanoma): 19.1 µM | TGI (UACC-257 melanoma): 38.3 µM | GI50 (NCI-H522 lung): 47.6 µM | TGI (NCI-H522 lung): > 100 µM | GI50 (K-562 leukemia): 40.8 µM | TGI (K-562 leukemia): > 100 µM | GI50 (SF-539 CNS): 23.4 µM | TGI (SF-539 CNS): 50.2 µM | GI50 (PC-3 prostate): 20.1 µM | TGI (PC-3 prostate): 38.9 µM | GI50 (NCI-H23 lung): 18 µM | TGI (NCI-H23 lung): 32.8 µM | GI50 (M14 melanoma): 52.2 µM | TGI (M14 melanoma): > 100 µM | GI50 (EKVX NSCLC): 46.8 µM | TGI (EKVX NSCLC): > 100 µM | GI50 (RPMI-8226 leukemia): 17.4 µM | TGI (RPMI-8226 leukemia): 39.7 µM | GI50 (KM12 colon): 17.6 µM | TGI (KM12 colon): 33.4 µM | GI50 (NCI-H460 lung): 18 µM | TGI (NCI-H460 lung): 37.7 µM | GI50 (OVCAR-8 ovarian): 33.6 µM | TGI (OVCAR-8 ovarian): > 100 µM | GI50 (MALME-3M melanoma): 13.9 µM | TGI (MALME-3M melanoma): 40.9 µM | GI50 (TK-10 renal): 19.8 µM | TGI (TK-10 renal): 40 µM | GI50 (SR leukemia): 29.1 µM | TGI (SR leukemia): > 100 µM | GI50 (SK-MEL-5 melanoma): 26.4 µM | TGI (SK-MEL-5 melanoma): 98.1 µM | GI50 (SF-268 CNS): 22.5 µM | TGI (SF-268 CNS): 55.6 µM | GI50 (A549 NSCLC): 46.9 µM | TGI (A549 NSCLC): > 100 µM | GI50 (OVCAR-4 ovarian): 27.8 µM | TGI (OVCAR-4 ovarian): 75.4 µM | GI50 (A498 renal): 13.8 µM | TGI (A498 renal): 34.8 µM | GI50 (HS 578T breast): 24.5 µM | TGI (HS 578T breast): 63.3 µM | GI50 (ACHN renal): 27.8 µM | TGI (ACHN renal): 85.5 µM | GI50 (MOLT-4 leukemia): 45.1 µM | TGI (MOLT-4 leukemia): > 100 µM | GI50 (SK-MEL-28 melanoma): 19.8 µM | TGI (SK-MEL-28 melanoma): 42.6 µM
